Patent publication US20240240155A1, “Organoid-Derived Monolayers and Uses Thereof” (Hub Organoids IP B.V., priority 2021, published 2024)

Target: T1, OCT2 (Homo sapiens, UniProt O15244)
T1 construct: endogenous in cells; host or cells: human kidney organoid-derived monolayer (donor kidney-C)
T1 sequence (O15244 1-555): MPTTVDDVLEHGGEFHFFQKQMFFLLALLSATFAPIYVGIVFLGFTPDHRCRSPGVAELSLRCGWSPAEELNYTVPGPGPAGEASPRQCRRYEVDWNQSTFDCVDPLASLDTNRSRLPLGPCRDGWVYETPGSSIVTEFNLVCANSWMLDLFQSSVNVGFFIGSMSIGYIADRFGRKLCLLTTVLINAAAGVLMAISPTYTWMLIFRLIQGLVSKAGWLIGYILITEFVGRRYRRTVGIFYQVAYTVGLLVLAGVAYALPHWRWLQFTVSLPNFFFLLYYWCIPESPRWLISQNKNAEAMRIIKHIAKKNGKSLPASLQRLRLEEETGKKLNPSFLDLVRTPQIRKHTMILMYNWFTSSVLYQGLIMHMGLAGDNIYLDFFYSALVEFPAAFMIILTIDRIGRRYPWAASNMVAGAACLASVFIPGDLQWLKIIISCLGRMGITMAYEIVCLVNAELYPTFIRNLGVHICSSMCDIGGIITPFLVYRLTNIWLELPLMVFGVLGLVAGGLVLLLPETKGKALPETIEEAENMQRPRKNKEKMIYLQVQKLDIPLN
Experiment: Rhodamine transport assay, kidney-C monolayers
Assay type: cell-based
Settings: 1 μM, 30 mins; day 7
Procedure: FIG. 28 illustrates fluorescence measurements for accumulated intracellular Rhodamine 123 for kidney-C cultures grown in KEM media, with or without addition of 1 uM decitabine (DAC) on day 2 after seeding, in the presence or absence of PSC833 (a specific P-gp inhibitor) and decynium-22 (a specific OCT2 inhibitor). A sample incubated with PBS only (without […]) was used as a negative control. RFU, relative fluorescence units.
Rhodamine transport from the basolateral compartment into kidney monolayers grown in either the KEM or DAC conditions as described in Example 9 was measured on day 7 after seeding in the presence or absence of the P-gp inhibitor PSC-833 and/or OCT2 inhibitor Decynium-22 as follows: • 1. Remove media and rinse cells using PBS. • 2. Add fresh buffer under one of the following conditions (37° C.): • 1. 1 μM Decynium-22, 30 mins, • 2. 1 μM PSC-833, 30 mins, • 3. 1 μM Decynium-22 and 1 μM PSC-833, 30 mins, or • 4. Untreated Control, 30 mins. • 3. Add Rhodamine 123 at a final concentration 250 nM to the basolateral compartment and incubate for 30 minutes at 37° C. • 4. Analyse cellular accumulation of Rhodamine 123 using fluorescence (Excitation λ 490 nm, Emission λ 520 nm). • 5. Assess accumulation differences.

cellular accumulation of Rhodamine: decreased accumulation
Compound: CCN1/C(=C/c2ccc3ccccc3[n+]2CC)C=Cc2ccccc21.[I-] [Decynium-22]
